Ends that are not written are not given here. Peptide text beside a SMILES is read from it.
Key:
[1] = target: T1, PQQGDH (Acinetobacter calcoaceticus, UniProt P13650); test: PQQGDH activity for glucose in the presence of synthetic peptides (PMS/DCIP assay); assay type: biochemical; conditions: derived from the Dixon plot; 0.57 nM apo-PQQGDH, glucose substrate, pH 7.0; read-out: Ki (inhibition constant)
Method: The three peptides with the lowest docking energies, GEKD, GERD, and SERG, and the control peptide DDDD were synthesized by Qiagen (Chatsworth, CA, USA). […] In general, purified PQQGDH is a mixture of an apo- and holo-type enzyme. Therefore, we dialyzed the enzyme against 100 mM EDTA and 10 mM MOPS-NaOH buffer for 2 days, to remove the Ca^2+ ions. Each synthesized peptide was prepared at concentrations of 0.2, 1, 2, 10, and 20 μM. The prepared peptides and 0.57 nM of apo-PQQGDH were incubated in 10 mM MOPS-NaOH buffer (pH 7.0) for 10 min at room temperature. PQQGDH activity was measured using 0.6 mM PMS and 0.06 mM DCIP. Decreased in the absorbance of DCIP at 600 nm at various concentrations of glucose were monitored, and the kinetic parameters of PQQGDH were as described previously. The kinetic parameters and Ki values were calculated using the KaleidaGraph software.

[2] = target: T1, PQQGDH; parameters: method as in PMID 12882541; conditions: peptide from phage display peptide library; cited from earlier work

T1 sequence (P13650 25-478): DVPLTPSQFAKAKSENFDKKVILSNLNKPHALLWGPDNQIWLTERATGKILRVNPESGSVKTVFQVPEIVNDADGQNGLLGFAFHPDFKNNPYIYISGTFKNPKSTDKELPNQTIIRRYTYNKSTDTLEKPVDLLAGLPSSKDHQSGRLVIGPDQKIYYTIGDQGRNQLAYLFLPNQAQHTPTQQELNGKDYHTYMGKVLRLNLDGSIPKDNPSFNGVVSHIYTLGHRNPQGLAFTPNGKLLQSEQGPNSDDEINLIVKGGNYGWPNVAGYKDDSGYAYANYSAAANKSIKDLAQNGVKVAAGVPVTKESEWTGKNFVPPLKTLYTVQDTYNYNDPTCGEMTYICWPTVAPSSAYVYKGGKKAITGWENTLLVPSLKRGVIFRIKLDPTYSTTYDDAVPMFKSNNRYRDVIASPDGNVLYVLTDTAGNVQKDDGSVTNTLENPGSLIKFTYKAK

Row | Molecule | Ki [1] | Effect on substrate specificity of PQQGDH [2]
1 | N=C(N)NCCC[C@H](NC(=O)[C@H](CCC(=O)O)NC(=O)[C@@H](N)CO)C(=O)NCC(=O)O [SERG] (H-SERG-OH) | 20 µM | –
2 | TTATEYS [seven-amino-acid peptide previously identified from a phage display peptide library] | – | narrowed the substrate specificity of PQQGDH without significant loss of enzyme activity
3 | NCCCC[C@H](NC(=O)[C@H](CCC(=O)O)NC(=O)CN)C(=O)N[C@@H](CC(=O)O)C(=O)O [GEKD] (H-GEKD-OH) | > 20 µM | –
4 | N[C@@H](CC(=O)O)C(=O)N[C@@H](CC(=O)O)C(=O)N[C@@H](CC(=O)O)C(=O)N[C@@H](CC(=O)O)C(=O)O [DDDD] (H-DDDD-OH) | > 100 µM | –
5 | N=C(N)NCCC[C@H](NC(=O)[C@H](CCC(=O)O)NC(=O)CN)C(=O)N[C@@H](CC(=O)O)C(=O)O [GERD] (H-GERD-OH) | > 20 µM | –

Reference: paper PMC1781467, “In silico panning for a non-competitive peptide inhibitor” (BMC Bioinformatics, 2007)
